Test results as given in US11548868B2, “Heterocyclic compounds, compositions comprising heterocyclic compound, and methods of use thereof” (JS INNOPHARM (SHANGHAI) LTD, priority 2017, dated 2023).

Assays:
[1] = biological target: T1, IDO1 in Hela cancer cells (Homo sapiens, UniProt P14902); assay: IDO1 Cellular Assay (kynurenine production in IFN-γ stimulated Hela cancer cells); type: cell-based; conditions: human IFN-γ 50 ng/mL, 48 hours incubation, kynurenine at 490 nm
T1 construct: endogenous in cells; host or cells: Hela cancer cells stimulated with human IFN-γ
T1 sequence (P14902 whole entry): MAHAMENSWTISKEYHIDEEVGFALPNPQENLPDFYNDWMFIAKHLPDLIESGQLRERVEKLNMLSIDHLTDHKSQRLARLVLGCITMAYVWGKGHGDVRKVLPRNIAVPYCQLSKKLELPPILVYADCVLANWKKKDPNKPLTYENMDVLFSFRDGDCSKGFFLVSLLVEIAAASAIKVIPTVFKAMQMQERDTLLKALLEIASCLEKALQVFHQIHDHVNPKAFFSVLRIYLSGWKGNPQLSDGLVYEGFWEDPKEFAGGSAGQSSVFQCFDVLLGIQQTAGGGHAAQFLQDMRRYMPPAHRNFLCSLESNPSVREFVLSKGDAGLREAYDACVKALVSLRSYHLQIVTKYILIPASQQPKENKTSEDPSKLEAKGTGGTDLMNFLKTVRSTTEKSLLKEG
Summary of the method: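 HeLa cells stimulated with 50 ng/mL IFN-γ (final) and treated 48 h with compound (0–25 μM final, 0.25% DMSO). Supernatant kynurenine measured after TCA hydrolysis and p-dimethylaminobenzaldehyde reaction at 490 nm; inhibition vs DMSO control, IC50 by non-linear regression.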

[2] = biological target: T2, TDO2 in A172 cancer cells (Homo sapiens, UniProt P48775); assay: TDO2 Cellular Assay (kynurenine production in A172 cancer cells); type: cell-based; conditions: L-Trp 1 mM, 24 hours incubation, kynurenine at 490 nm
T2 construct: endogenous in cells; host or cells: A172 cancer cells
T2 sequence (P48775 whole entry): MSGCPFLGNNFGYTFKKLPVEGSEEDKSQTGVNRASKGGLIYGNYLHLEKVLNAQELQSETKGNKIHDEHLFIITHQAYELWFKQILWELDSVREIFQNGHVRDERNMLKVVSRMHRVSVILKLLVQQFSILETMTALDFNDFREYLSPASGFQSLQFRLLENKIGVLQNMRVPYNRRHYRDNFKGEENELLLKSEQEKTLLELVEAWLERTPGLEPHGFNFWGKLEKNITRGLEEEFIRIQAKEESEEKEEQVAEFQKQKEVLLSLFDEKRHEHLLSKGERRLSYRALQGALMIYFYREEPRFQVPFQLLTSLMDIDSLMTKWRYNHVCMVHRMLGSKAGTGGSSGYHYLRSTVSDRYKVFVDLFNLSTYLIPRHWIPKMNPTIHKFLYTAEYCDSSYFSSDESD
Summary of the method: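 Kynurenine output of A172 cells was read colorimetrically at 490 nm (Ehrlich reagent after TCA hydrolysis at 50 °C). Cells had 1 mM L-Trp plus compound at 0–25 μM in 0.25% DMSO for 24 h; IC50 values were fitted non-linearly from percent inhibition relative to vehicle.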

Compound	IC50 [1]	IC50 [2]
CC1(C)[C@H]2CN(c3cc(Cl)cc4cncn34)C[C@H]2CN1S(C)(=O)=O (racemic) [Example 44, Racemic-7-chloro-5-((3aR,6aS)-4,4-dimethyl-5-(methylsulfonyl)hexahydropyrrolo[3,4-c]pyrrol-2(1H)-yl)imidazo[1,5-a]pyridine]	> 5000 nM	> 5000 nM
CC(=O)N[C@H]1[C@@H]2C[C@@](O)(c3cc(Cl)cc4cn[nH]c34)C[C@@H]21 [Example 108, N-((1R,3r,5S,6r)-3-(5-chloro-1H-indazol-7-yl)-3-hydroxybicyclo[3.1.0]hexan-6-yl)acetamide]	> 5000 nM	≤ 500 nM
CC(=O)N1C[C@@H]2CN(c3cc(Cl)cn4cncc34)C[C@@H]2C1(C)C (racemic) [Example 41, Racemic-1-((3aS,6aR)-5-(6-chloroimidazo[1,5-a]pyridin-8-yl)-1,1-dimethylhexahydropyrrolo[3,4-c]pyrrol-2(1H)-yl)ethanone]	> 5000 nM	1000 to 5000 nM
CC(=O)N1C[C@H]2CC(C(O)c3cc(Cl)cc4[nH]ncc34)C[C@H]2C1 (stereo partly drawn) [Example 104, 1-((3aR,6aS)-5-((6-chloro-1H-indazol-4-yl)(hydroxy)methyl)hexahydrocyclopenta[c]pyrrol-2(1H)-yl)ethanone]	> 5000 nM	500 to 1000 nM
O=C(N[C@H]1[C@@H]2C[C@@](O)(c3cc(Cl)cc4cn[nH]c34)C[C@@H]21)c1ccccc1 [Example 129, N-((1R,3r,5S,6r)-3-(5-chloro-1H-indazol-7-yl)-3-hydroxybicyclo[3.1.0]hexan-6-yl)benzamide]	1000 to 5000 nM	1000 to 5000 nM
O=C(NC1CC1)N[C@H]1[C@@H]2C[C@@](O)(c3cc(Cl)cc4[nH]ncc34)C[C@@H]21 [Example 120, 1-((1R,3r,5S,6r)-3-(6-chloro-1H-indazol-4-yl)-3-hydroxybicyclo[3.1.0]hexan-6-yl)-3-cyclopropylurea]	> 5000 nM	≤ 500 nM
O=C(Nc1cccc(Cl)c1)N[C@H]1[C@@H]2C[C@@](O)(c3cc(Cl)cc4[nH]ncc34)C[C@@H]21 [Example 122, 1-((1R,3r,5S,6r)-3-(6-chloro-1H-indazol-4-yl)-3-hydroxybicyclo[3.1.0]hexan-6-yl)-3-(3-chlorophenyl)urea]	1000 to 5000 nM	1000 to 5000 nM
O=C(C1CC1)N1C[C@@H]2C[C@@](O)(c3cc(Cl)cc4cn[nH]c34)C[C@@H]2C1 [Example 99, ((3aR,5r,6aS)-5-(5-chloro-1H-indazol-7-yl)-5-hydroxyhexahydrocyclopenta[c]pyrrol-2(1H)-yl)(cyclopropyl)methanone]	> 5000 nM	1000 to 5000 nM
O=C(Cc1ccc(Cl)cc1)N1C[C@@H]2C[C@@](O)(c3cc(Cl)cc4[nH]ncc34)C[C@@H]2C1 [Example 175, 1-((3aR,5r,6aS)-5-(6-chloro-1H-indazol-4-yl)-5-hydroxyhexahydrocyclopenta[c]pyrrol-2(1H)-yl)-2-(4-chlorophenyl)ethanone]	1000 to 5000 nM	≤ 500 nM
CC(=O)Nc1cccc(C(=O)N[C@H]2[C@@H]3C[C@@](O)(c4cc(Cl)cc5[nH]ncc45)C[C@@H]32)c1 [Example 151, 3-acetamido-N-((1R,3r,5S,6r)-3-(6-chloro-1H-indazol-4-yl)-3-hydroxybicyclo[3.1.0]hexan-6-yl)benzamide]	1000 to 5000 nM	≤ 500 nM
O=S(=O)(C1CCOCC1)N1C[C@@H]2C[C@@](O)(c3cc(Cl)cc4cn[nH]c34)C[C@@H]2C1 [Example 101, (3aR,5r,6aS)-5-(5-chloro-1H-indazol-7-yl)-2-((tetrahydro-2H-pyran-4-yl)sulfonyl)octahydrocyclopenta[c]pyrrol-5-ol]	> 5000 nM	1000 to 5000 nM
CC(=O)N[C@H]1[C@@H]2C[C@@](O)(c3cc(C(F)(F)F)cc4[nH]ncc34)C[C@@H]21 [Example 164, N-((1R,3r,5S,6r)-3-hydroxy-3-(6-(trifluoromethyl)-1H-indazol-4-yl)bicyclo[3.1.0]hexan-6-yl)acetamide]	> 5000 nM	≤ 500 nM
O=S(=O)(N[C@H]1[C@@H]2C[C@@](O)(c3cc(Cl)cc4[nH]ncc34)C[C@@H]21)c1ccccc1 [Example 95, N-((1R,3r,5S,6r)-3-(6-chloro-1H-indazol-4-yl)-3-hydroxybicyclo[3.1.0]hexan-6-yl)benzenesulfonamide]	> 5000 nM	≤ 500 nM
O=C(N[C@H]1[C@@H]2C[C@@](O)(c3cc(Cl)cc4[nH]ncc34)C[C@@H]21)c1ccnc2ccccc12 [Example 169, N-((1R,3r,5S,6r)-3-(6-chloro-1H-indazol-4-yl)-3-hydroxybicyclo[3.1.0]hexan-6-yl)quinoline-4-carboxamide]	1000 to 5000 nM	≤ 500 nM

Further lines, results first:

IC50 [1]	IC50 [2]	Compound
1000 to 5000 nM	≤ 500 nM	O=C(Nc1ccccc1)N[C@H]1[C@@H]2C[C@@](O)(c3cc(Cl)cc4[nH]ncc34)C[C@@H]21 [Example 115, 1-((1R,3r,5S,6r)-3-(6-chloro-1H-indazol-4-yl)-3-hydroxybicyclo[3.1.0]hexan-6-yl)-3-phenylurea]
1000 to 5000 nM	≤ 500 nM	OCC1[C@H]2C[C@](O)(c3cc(Cl)cc4[nH]ncc34)C[C@@H]12 (stereo partly drawn) [Example 111, (1R,3r,5S)-3-(6-chloro-1H-indazol-4-yl)-6-(hydroxymethyl)bicyclo[3.1.0]hexan-3-ol]
≤ 500 nM	≤ 500 nM	O=C(N[C@H]1[C@@H]2C[C@@](O)(c3cc(Cl)cc4[nH]ncc34)C[C@@H]21)c1cncc(Cl)c1 [Example 179, 5-chloro-N-((1R,3r,5S,6r)-3-(6-chloro-1H-indazol-4-yl)-3-hydroxybicyclo[3.1.0]hexan-6-yl)nicotinamide]
≤ 500 nM	≤ 500 nM	O=C(N[C@H]1[C@@H]2C[C@@](O)(c3cc(Cl)cc4[nH]ncc34)C[C@@H]21)c1ccnc(OC(F)(F)F)c1 [Example 161, N-((1R,3r,5S,6r)-3-(6-chloro-1H-indazol-4-yl)-3-hydroxybicyclo[3.1.0]hexan-6-yl)-2-(trifluoromethoxy)isonicotinamide]
≤ 500 nM	≤ 500 nM	O=C(N[C@H]1[C@@H]2C[C@@](O)(c3cc(Cl)cc4[nH]ncc34)C[C@@H]21)c1ccc(F)c(C(F)(F)F)c1 [Example 172, N-((1R,3r,5S,6r)-3-(6-chloro-1H-indazol-4-yl)-3-hydroxybicyclo[3.1.0]hexan-6-yl)-4-fluoro-3-(trifluoromethyl)benzamide]
500 to 1000 nM	≤ 500 nM	O=C(N[C@H]1[C@@H]2C[C@@](O)(c3cc(Cl)cc4[nH]ncc34)C[C@@H]21)c1cncc(F)c1 [Example 173, N-((1R,3r,5S,6r)-3-(6-chloro-1H-indazol-4-yl)-3-hydroxybicyclo[3.1.0]hexan-6-yl)-5-fluoronicotinamide]
500 to 1000 nM	≤ 500 nM	O=S(=O)(CC(F)(F)F)N[C@H]1[C@@H]2C[C@@](O)(c3cc(Cl)cc4[nH]ncc34)C[C@@H]21 [Example 139, N-((1R,3r,5S,6r)-3-(6-chloro-1H-indazol-4-yl)-3-hydroxybicyclo[3.1.0]hexan-6-yl)-2,2,2-trifluoroethanesulfonamide]
